Assay results published in PubChem BioAssay AID256 (DTP/NCI, 2004).
“And” between values parts separate entries of the source, which are not always exact repeats. Equal values may be shown once. Toxic doses and inconclusive results are not listed.

Test system: CD2F1 mice, L1210 leukemia ip, survival T/C
Test: NCI In Vivo Anticancer Drug Screen. Data for tumor model L1210 Leukemia (intraperitoneal) in CD2F1 (CDF1) mice
Settings: higher = longer survival
Method in brief: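 In this screen, transplantable tumors were grown in mice given either the compound or its vehicle. Results were expressed as the treated measurement relative to the control measurement.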

`O=c1[nH]cc(F)c(=O)[nH]1` was tested, and the T/C (endpoint: mean survival time, dose: 2.5 mg/kg/injection, schedule: Q01DX009 (ip), vehicle: saline) was 113 % of control, the T/C (endpoint: mean survival time, dose: 3.75 mg/kg/injection, schedule: Q01DX003 (ip), vehicle: saline) was 116 % of control and the T/C (endpoint: mean survival time, dose: 3.75 mg/kg/injection, schedule: Q01DX005 (ip), vehicle: saline) was 114 % of control and 122 % of control. For the same molecule, the T/C (endpoint: mean survival time, dose: 4.0 mg/kg/injection, schedule: Q03HX016 (ip), vehicle: water) was 167 % of control, the T/C (endpoint: mean survival time, dose: 4.0 mg/kg/injection, schedule: Q03HX024 (ip), vehicle: water) was 153 % of control and the T/C (endpoint: mean survival time, dose: 5.0 mg/kg/injection, schedule: Q01DX009 (ip), vehicle: saline) was 124 % of control. For the same molecule, the T/C (endpoint: mean survival time, dose: 7.5 mg/kg/injection, schedule: Q03HX024 (ip), vehicle: saline) was 157 % of control, the T/C (endpoint: mean survival time, dose: 8.0 mg/kg/injection, schedule: Q01DX009 (ip), vehicle: water) was 151 % of control and the T/C (endpoint: mean survival time, dose: 8.0 mg/kg/injection, schedule: Q03HX016 (ip), vehicle: water) was 154 % of control. The T/C (endpoint: mean survival time, dose: 10.0 mg/kg/injection, schedule: Q01DX002 (ip), vehicle: saline) was 124 % of control, the T/C (endpoint: mean survival time, dose: 10.0 mg/kg/injection, schedule: Q01DX006 (ip), vehicle: saline) was 161 % of control and the T/C (endpoint: mean survival time, dose: 10.0 mg/kg/injection, schedule: Q03HX016 (ip), vehicle: saline) was 152 % of control. The T/C (endpoint: mean survival time, dose: 10.8 mg/kg/injection, schedule: Q01DX009 (ip), vehicle: saline) was 150 % of control, the T/C (endpoint: mean survival time, dose: 12.0 mg/kg/injection, schedule: Q04DX003 (ip), vehicle: saline) was 121 % of control and the T/C (endpoint: mean survival time, dose: 12.5 mg/kg/injection, schedule: Q03HX024 (oral), vehicle: saline) was 122 % of control. The T/C (endpoint: mean survival time, dose: 13.3 mg/kg/injection, schedule: Q01DX009 (ip), vehicle: saline sonified) was 168 % of control, the T/C (endpoint: mean survival time, dose: 14.0 mg/kg/injection, schedule: Q01DX009 (ip), vehicle: saline sonified) was 160 % of control and the T/C (endpoint: mean survival time, dose: 14.0 mg/kg/injection, schedule: Q01DX009 (ip), vehicle: saline with Tween-80) was 157 % of control and 172 % of control. For the same molecule, the T/C (endpoint: mean survival time, dose: 15.0 mg/kg/injection, schedule: Q01DX005 (ip), vehicle: saline) was 158 % of control and 169 % of control, the T/C (endpoint: mean survival time, dose: 16.0 mg/kg/injection, schedule: Q01DX009 (oral), vehicle: saline) was 114 % of control and the T/C (endpoint: mean survival time, dose: 16.0 mg/kg/injection, schedule: Q03HX008 (ip), vehicle: water) was 163 % of control. The T/C (endpoint: mean survival time, dose: 16.0 mg/kg/injection, schedule: Q03HX024 (ip), vehicle: water) was 120 % of control, the T/C (endpoint: mean survival time, dose: 20.0 mg/kg/injection, schedule: Q01DX009 (ip), vehicle: saline sonified) was 169 % of control and the T/C (endpoint: mean survival time, dose: 20.0 mg/kg/injection, schedule: Q03DX003 (ip), vehicle: saline) was 152 % of control. For the same molecule, the T/C (endpoint: mean survival time, dose: 22.5 mg/kg/injection, schedule: Q01DX009 (ip), vehicle: saline) was 117 % of control, the T/C (endpoint: mean survival time, dose: 25.0 mg/kg/injection, schedule: Q01DX001 (ip), vehicle: saline) was 117 % of control and the T/C (endpoint: mean survival time, dose: 25.0 mg/kg/injection, schedule: Q03HX024 (oral), vehicle: saline) was 118 % of control. For the same molecule, the T/C (endpoint: mean survival time, dose: 30.0 mg/kg/injection, schedule: Q01DX003 (ip), vehicle: saline) was 168 % of control, the T/C (endpoint: mean survival time, dose: 30.0 mg/kg/injection, schedule: Q01DX003 (oral), vehicle: saline) was 123 % of control and the T/C (endpoint: mean survival time, dose: 30.0 mg/kg/injection, schedule: Q01DX005 (oral), vehicle: saline) was 119 % of control. For the same molecule, the T/C (endpoint: mean survival time, dose: 30.0 mg/kg/injection, schedule: Q01DX009 (ip), vehicle: saline sonified) was 152 % of control, the T/C (endpoint: mean survival time, dose: 30.0 mg/kg/injection, schedule: Q04DX003 (ip), vehicle: saline sonified) was 152 % of control and the T/C (endpoint: mean survival time, dose: 32.0 mg/kg/injection, schedule: Q04DX003 (ip), vehicle: water) was 169 % of control. The T/C (endpoint: mean survival time, dose: 32.0 mg/kg/injection, schedule: Q08DX002 (ip), vehicle: water) was 154 % of control, the T/C (endpoint: mean survival time, dose: 40.0 mg/kg/injection, schedule: Q04DX003 (ip), vehicle: saline sonified) was 165 % of control and the T/C (endpoint: mean survival time, dose: 40.0 mg/kg/injection, schedule: Q04DX003 (ip), vehicle: saline with Tween-80) was 160 % of control and 163 % of control and 172 % of control. The T/C (endpoint: mean survival time, dose: 44.0 mg/kg/injection, schedule: Q04DX003 (ip), vehicle: saline) was 172 % of control, the T/C (endpoint: mean survival time, dose: 50.0 mg/kg/injection, schedule: Q01DX009 (oral), vehicle: saline) was 116 % of control and the T/C (endpoint: mean survival time, dose: 50.0 mg/kg/injection, schedule: Q03HX008 (oral), vehicle: saline) was 122 % of control. For the same molecule, the T/C (endpoint: mean survival time, dose: 50.0 mg/kg/injection, schedule: Q04DX003 (ip), vehicle: saline) was 172 % of control, the T/C (endpoint: mean survival time, dose: 60.0 mg/kg/injection, schedule: Q01DX005 (oral), vehicle: saline) was 117 % of control and the T/C (endpoint: mean survival time, dose: 60.0 mg/kg/injection, schedule: Q03HX024 (ip), vehicle: saline) was 164 % of control. The T/C (endpoint: mean survival time, dose: 60.0 mg/kg/injection, schedule: Q04DX003 (ip), vehicle: saline sonified) was 164 % of control, the T/C (endpoint: mean survival time, dose: 60.0 mg/kg/injection, schedule: Q04DX003 (ip), vehicle: saline with Tween-80) was 164 % of control and the T/C (endpoint: mean survival time, dose: 62.5 mg/kg/injection, schedule: Q01DX001 (oral), vehicle: saline) was 113 % of control. The T/C (endpoint: mean survival time, dose: 64.0 mg/kg/injection, schedule: Q01DX009 (oral), vehicle: saline) was 119 % of control, the T/C (endpoint: mean survival time, dose: 64.0 mg/kg/injection, schedule: Q04DX003 (ip), vehicle: water) was 160 % of control and the T/C (endpoint: mean survival time, dose: 64.0 mg/kg/injection, schedule: Q08DX002 (ip), vehicle: water) was 164 % of control. For the same molecule, the T/C (endpoint: mean survival time, dose: 67.5 mg/kg/injection, schedule: Q04DX003 (ip), vehicle: saline) was 150 % of control, the T/C (endpoint: mean survival time, dose: 80.0 mg/kg/injection, schedule: Q03HX024 (ip), vehicle: saline) was 176 % of control and the T/C (endpoint: mean survival time, dose: 80.0 mg/kg/injection, schedule: Q04DX003 (ip), vehicle: saline sonified) was 160 % of control. For the same molecule, the T/C (endpoint: mean survival time, dose: 100.0 mg/kg/injection, schedule: Q08DX002 (oral), vehicle: saline) was 151 % of control, the T/C (endpoint: mean survival time, dose: 128.0 mg/kg/injection, schedule: Q04DX003 (ip), vehicle: water) was 120 % of control and the T/C (endpoint: mean survival time, dose: 128.0 mg/kg/injection, schedule: Q08DX002 (ip), vehicle: water) was 167 % of control. For the same molecule, the T/C (endpoint: mean survival time, dose: 132.0 mg/kg/injection, schedule: Q01DX001 (ip), vehicle: saline) was 153 % of control, the T/C (endpoint: mean survival time, dose: 166.0 mg/kg/injection, schedule: Q01DX001 (ip), vehicle: saline with Tween-80) was 150 % of control and the T/C (endpoint: mean survival time, dose: 200.0 mg/kg/injection, schedule: Q01DX001 (oral), vehicle: saline) was 118 % of control. For the same molecule, the T/C (endpoint: mean survival time, dose: 200.0 mg/kg/injection, schedule: Q04DX003 (ip), vehicle: saline) was 159 % of control, the T/C (endpoint: mean survival time, dose: 256.0 mg/kg/injection, schedule: Q08DX002 (ip), vehicle: water) was 120 % of control and the T/C (endpoint: mean survival time, dose: 300.0 mg/kg/injection, schedule: Q01DX001 (ip), vehicle: saline with Tween-80) was 153 % of control. The T/C (endpoint: mean survival time, dose: 338.0 mg/kg/injection, schedule: Q01DX001 (ip), vehicle: saline) was 150 % of control, the T/C (endpoint: mean survival time, dose: 400.0 mg/kg/injection, schedule: Q04DX003 (ip), vehicle: saline with Tween-80) was 117 % of control and the T/C (endpoint: mean survival time, dose: 400.0 mg/kg/injection, schedule: Q04DX003 (ip), vehicle: saline) was 161 % of control. For the same molecule, the T/C (endpoint: median survival time, dose: 6.48 mg/kg/injection, schedule: Q01DX009 (ip), vehicle: saline) was 120 % of control, the T/C (endpoint: median survival time, dose: 7.5 mg/kg/injection, schedule: Q01DX009 (ip), vehicle: saline) was 153 % of control and the T/C (endpoint: median survival time, dose: 7.5 mg/kg/injection, schedule: Q## X009 (ip), vehicle: saline) was 153 % of control. The T/C (endpoint: median survival time, dose: 10.0 mg/kg/injection, schedule: Q01DX001 (ip), vehicle: saline) was 152 % of control, the T/C (endpoint: median survival time, dose: 13.0 mg/kg/injection, schedule: Q04DX002 (ip), vehicle: saline) was 121 % of control and the T/C (endpoint: median survival time, dose: 13.0 mg/kg/injection, schedule: Q04DX003 (ip), vehicle: saline) was 121 % of control. For the same molecule, the T/C (endpoint: median survival time, dose: 14.3 mg/kg/injection, schedule: Q04DX003 (ip), vehicle: saline) was 124 % of control, the T/C (endpoint: median survival time, dose: 15.0 mg/kg/injection, schedule: Q01DX005 (ip), vehicle: saline) was 165 % of control and the T/C (endpoint: median survival time, dose: 15.0 mg/kg/injection, schedule: Q01DX009 (ip), vehicle: saline) was 167 % of control. The T/C (endpoint: median survival time, dose: 15.0 mg/kg/injection, schedule: Q## X009 (ip), vehicle: saline) was 167 % of control, the T/C (endpoint: median survival time, dose: 20.0 mg/kg/injection, schedule: Q01DX001 (ip), vehicle: saline) was 154 % of control and the T/C (endpoint: median survival time, dose: 21.6 mg/kg/injection, schedule: Q04DX002 (ip), vehicle: saline) was 123 % of control. For the same molecule, the T/C (endpoint: median survival time, dose: 30.0 mg/kg/injection, schedule: Q01DX009 (ip), vehicle: saline) was 173 % of control, the T/C (endpoint: median survival time, dose: 36.0 mg/kg/injection, schedule: Q04DX003 (ip), vehicle: saline) was 160 % of control and 167 % of control and the T/C (endpoint: median survival time, dose: 39.6 mg/kg/injection, schedule: Q04DX003 (ip), vehicle: saline) was 164 % of control. The T/C (endpoint: median survival time, dose: 40.0 mg/kg/injection, schedule: Q04DX002 (ip), vehicle: saline) was 162 % of control, the T/C (endpoint: median survival time, dose: 80.0 mg/kg/injection, schedule: Q04DX002 (ip), vehicle: saline) was 166 % of control and the T/C (endpoint: median survival time, dose: 100.0 mg/kg/injection, schedule: Q04DX003 (ip), vehicle: saline) was 151 % of control. The T/C (endpoint: median survival time, dose: 300.0 mg/kg/injection, schedule: Q01DX001 (ip), vehicle: Klucel (hydroxypropylcellulose) (HPC)) was 174 % of control.
